Measured values reported in PubChem BioAssay AID2305 (GlaxoSmithKline (GSK), 2010).

system: P. falciparum 3D7 growth, pLDH absorbance; experiment: blood-stage malaria parasite growth potency – strain 3D7, dose response (AID 2305)

Structure (SMILES)	IC50 [µM]
Cc1oc(-c2ccccc2)nc1CCOc1ccc(C[C@H](Nc2ccccc2C(=O)c2ccccc2)C(=O)NCc2ccccn2)cc1	0.88
CCc1cc(Br)c2c(c1)C(NCCCNc1cc(=O)c3ccccc3[nH]1)CCN2 (stereo unspecified)	0.85
CC1(C)N=C(N)NC(Nc2ccc(Cl)cc2)=N1	0.34
Oc1ccc(Cl)c2c1C(c1ccccc1)=NCC2	0.54
O=C(Nc1ccc(Cl)cc1)Nc1ccc(-c2ccc(-c3nc4ccccc4[nH]3)cc2)cc1	0.05
COc1ccc(C2c3cc(OC)c(OC)cc3C(=NO)C2C)cc1OC (stereo unspecified)	1.17
CCCCCCN1CCCN(Cc2ccc(C(=O)Nc3ccc(C(C)(C)C)cc3)cc2)CC1	0.74
C=CCn1c(Cc2ccccc2)nnc1Sc1ccc(C#N)c([N+](=O)[O-])c1	1.03
CC(C)(C)c1nn(-c2ccccc2)c2[nH]c(=O)c(CNCCc3ccccc3)cc12	0.87
CC(C)(CNC(=O)[C@H]1CCCCN1)c1nc(-c2ccc(Cl)c(O)c2)c(-c2ccncc2)[nH]1	0.73
CC(C)COc1ccc(Cl)cc1Cc1ccc(-c2nc3cc(F)c(F)cc3[nH]2)o1	0.89
O=C(/C=C/c1ccc(Cl)c(Cl)c1)NCCCCCN1CCC(NC(=S)Nc2ccc(Cl)cc2)CC1	0.44
Cc1cc(NC2CCCC2)nc(Nc2ccccc2C)n1	1.35
CC(C)(C)S[C@H]1S[C@H](SC(C)(C)C)[C@@H](OC(=O)c2ccccc2)C(OC(=O)c2ccccc2)[C@H]1OC(=O)c1ccccc1 (stereo partly specified)	0.94
COc1ccccc1-n1ccnc1SCC(=O)Nc1cccc(C(F)(F)F)c1	0.16
C#CCCC(=O)Nc1cccc(-c2cccc(-c3nc4ccc(C(F)(F)F)cc4[nH]3)c2)c1	0.81
COc1ccc2c(c1CCNCCCCNCCc1c(OC)ccc3c1CCCC3)CCCC2	0.38
CCN1CCN(CCCNc2c3ccc(Cl)cc3nc3ccc(OC)cc23)CC1	0.15
Nc1c2c(nc3ccc(NC(=O)c4ccccc4)cc13)CCCC2	0.61
O=C(N[C@@H](CC1CCCCC1)C(=O)NCc1cccc2ccccc12)c1ccc(O)c(-c2ccc(Cl)c(Cl)c2)c1	0.22
FC(F)(F)c1ccc2nc(-c3ccc(-c4ccc(CNCCN5CCNCC5)cc4)cc3)[nH]c2c1	1.12
CC1(C)N=C(N)N=C(N)N1c1ccc([N+](=O)[O-])cc1	0.23
CC(C)COc1ccc(Cl)cc1Cc1nc(-c2nc3ccc(CN4CCN(C)CC4)cc3[nH]2)co1	0.91
CC1=C(C(=O)Nc2ccc(Cl)cc2)C(c2ccncc2)n2nc(C(F)(F)F)nc2N1 (stereo unspecified)	0.93

Structure (SMILES)	IC50 [µM]
Cc1cccc(-c2nc3[nH]c(=O)cc(NC(=O)C(C)C)n3n2)c1	0.42
O=C(/C=C/c1ccc(C(F)(F)F)cc1)NCCCCCN1CCN(C(=O)Nc2ccc(Cl)c(Cl)c2)CC1	0.87
Cc1cc(N2C(N)=NC(N)=NC2(C)C)ccc1Cl	0.02
CC(C)CCNC(=O)C1Cc2c([nH]c3cc(Br)ccc23)C2(CCN(CCc3ccccc3)CC2)N1 (stereo unspecified)	0.91
CN(C)CCn1cc(C(=O)c2cc(Cl)ccc2O)cc1-c1nc2ccccc2c(=O)[nH]1	0.63
Nc1ncc(-c2ccc3nccc(-c4ccncc4)c3c2)cc1S(=O)(=O)N1CCOCC1	0.87
Nc1nc2c(cnn2CCCCCCCP(=O)(O)O)c(=O)[nH]1	0.47
O=C(Nc1ccc(-c2nc3ccccc3[nH]2)cc1)c1cnc(Cl)c(Cl)c1	0.73
CCOc1cc(C(=O)NC2CCN(Cc3ccccc3)CC2)ccc1-c1nc2cc(Cl)c(Cl)cc2[nH]1	0.47
CS(=O)(=O)CCNCc1ccc(-c2ccc3c(Nc4ccc(Oc5ccccn5)cc4)ccnc3c2)o1	0.71
CCC[C@@H]([C@@H](CC1CCC(C)CC1)C(=O)N[C@@H](CO)C(=O)Nc1nccs1)N(O)C=O (stereo partly specified)	0.32
O=C(Cn1c(CCc2cccc(F)c2F)nc(=O)c2ccccc21)N(CCN1CCCCC1)Cc1ccc(-c2ccc(C(F)(F)F)cc2)cc1	0.76
Cc1ccc(Nc2nccc(NCC(O)c3cccc(C)c3)n2)cc1 (stereo unspecified)	1.02
Cc1cc(C)c2nc(N3CCC(C(=O)NCCCN4CCC(N5CCCCC5)CC4)CC3)sc2c1	0.84
COc1ccc2c(=O)c(-c3ccc(OC(F)(F)F)cc3)c(C)[nH]c2c1	0.23
COc1ccc(CNC2CCN(C)CC2)cc1-c1ccc(OC)c(S(=O)(=O)NCc2ccccc2)c1	0.95
Cc1ccccc1Cc1cccc(/N=C(\N)Nc2ccc(Cl)cc2)n1	0.68
Cc1noc(C)c1-c1cccc(CNCc2cccc(-c3ccc(-c4nc5c(C)cccc5[nH]4)s3)c2)c1	0.21
COc1ccc(CC2(c3ccc(F)cc3)N=C(N)N(CCCc3cccnc3)C2=O)cc1 (stereo unspecified)	0.67
COCCN1CCC(N(Cc2ccc(-c3ccc(OC(F)(F)F)cc3)cc2)C(=O)Cn2c(CCc3cccc(F)c3F)cc(=O)c3ccccc32)CC1	1.21
CCc1ccc(-c2nc3cc(NC(=O)c4ccc([N+](=O)[O-])o4)ccc3o2)cc1	0.25
CCc1cn2c3c(cc(C(=O)N[C@@H](Cc4ccccc4)[C@H](O)CNCc4ccccc4C)cc13)N(C)S(=O)(=O)CC2	0.27
Cn1cnc2c(Nc3ccncc3)nc(-c3ccc(OC(F)(F)F)cc3)nc21	1.1
O=c1[nH]c(NCCCNCc2cc3c(Cl)cc(Cl)cc3[nH]2)nc2ccsc12	1.12

Structure (SMILES)	IC50 [µM]
CC(C)c1ccc(NC(=S)NN=Cc2ccccn2)cc1	0.72
COc1ccc(CC(C)NCC(O)c2cccc(Cl)c2)cc1C (stereo unspecified)	0.9
Cc1oc(-c2ccc(Cl)cc2)cc1C(=O)NCCC1CCN(CCCCCNC(=O)/C=C/c2ccc(Cl)c(Cl)c2)CC1	0.45
CS(=O)(=O)c1ccc(-c2cnc(N)c(-c3ccc(O)cc3)c2)cc1	1.36
O=C(Nc1cccc(-c2nn3ccccc3c2-c2ccnc(Nc3ccc(NCCCN4CCOCC4)c(F)c3)n2)c1)c1c(F)cccc1F	0.26
COc1ccc(CNCc2ccc(-c3ccc(-c4nc5ccc(C(F)(F)F)cc5[nH]4)s3)cc2)cc1	0.17
CCCc1cc(C(=O)N[C@@H](Cc2ccccc2)[C@H](O)CNC(C)(C)c2cccc(OC)c2)c(F)c(N2CCCC2=O)c1	0.1
NC(N)=Nc1nc(-c2cccc(NCCCCCCCCON3C(N)=NC(N)=NC34CCCCC4)c2)cs1	0.23
CCC(=O)c1cc(C(=O)NCCc2cccc(OC)c2)ccc1OC	0.9
O=C(Nc1ccccc1O)c1ccc(S(=O)(=O)c2ccc(Cl)cc2)cc1	1.35
CC(C)c1ccc(CN2CCC(CNC(=O)c3cc(-c4ccc(N(C)C)cc4)cs3)C2)cc1 (stereo unspecified)	1.25
O=C(/C=C/c1ccc(Cl)c(Cl)c1)NCCCCCCN1CCCN(C(=O)Nc2ccc(C(F)(F)F)cc2)CC1	0.58
CC(=O)Nc1cccc(CN(Cc2ccc(-c3ccc(CNCc4cccnc4)cn3)cc2)C(=O)Cc2cccnc2)c1	0.82
Cc1cc(=O)c(-c2ccc(Oc3cccc(OC(F)(F)F)c3)cc2)c(C)[nH]1	0.2
Nc1nc(N)c2c(ccc3c2ccn3C2C=CCCC2)n1 (stereo unspecified)	0.13
O=C(Nc1ccc2nc(-c3ccccc3)[nH]c2c1)c1cc(-c2ccc3c(c2)OCCO3)n[nH]1	0.77
CCCN1CCN(c2ccccc2NS(=O)(=O)c2ccc(C(=O)Nc3ccc(Cl)cc3)cc2)CC1	1.14
COc1cc(Cc2cnc(N)nc2N)cc(OCCCCC2SC(=O)NC2=O)c1OC (stereo unspecified)	0.03
c1cc(CNCCc2ccncc2)cc(-c2cccc(-c3nc4ccccc4[nH]3)c2)c1	0.15
CCn1c(CN2CCC(C)CC2)nc2cc(NC(=O)c3cccs3)ccc21	0.56
CCCCNC[C@@H](O)[C@H](Cc1ccccc1)NC(=O)c1cc2c3c(c1)c(CC)cn3CCS(=O)(=O)N2C	0.2
Cc1cc(F)ccc1-c1nc(NCCCN2CCCC2=O)nc2c1ccc(=O)n2-c1c(F)cccc1F	1.02
O=C(Nc1cccc(-c2ccc(-c3nc4ccccc4[nH]3)cc2)c1)c1cccnc1	1.04
Fc1ccc2nc(-c3ccc(-c4ccc(CNCCN5CCNCC5)cc4)s3)[nH]c2c1	0.78

Structure (SMILES)	IC50 [µM]
CCCCCN1CCCN(Cc2cccc(NC(=O)c3cc4ccccc4s3)c2)CC1	0.59
COc1cc2nc(N3CCC(CNC(=O)c4ccc(-c5ccccc5)cc4)CC3)nc(N)c2cc1OC	0.57
CCCCCCCc1c(C)[nH]c2c(OC)cccc2c1=O	0.92
COc1cccc(-c2ccc3c(-c4cccc(S(C)(=O)=O)c4)cnc(N)c3c2)c1	0.87
COc1ccc2nccc([C@@H](O)CN3CCC(NCc4nc5cc(F)ccc5o4)CC3)c2c1	0.15
O=C(Cc1ccc(Nc2nccc(Nc3cccc4[nH]ncc34)n2)cc1)Nc1ccc(C(F)(F)F)cc1	0.89
O=C(NCCCN1CCCC1=O)c1cnc(N2CCC(Oc3ccccc3)CC2)c(Cl)c1	0.3
N#Cc1ccc(N(CCOC(=O)c2ccc(Br)s2)Cc2ccccc2C(F)(F)F)cc1C(F)(F)F	1.07
O=C(NCCCCN1CCC(c2ccc3ccccc3c2O)CC1)c1ccc(NC(=O)c2ccc(Cl)cc2)cc1	1.01
CC(C)(C(=O)Nc1ccc(N2CCC3(CCCN(CC4CC4)C3)CC2)c(Cl)c1)c1cccc(C(F)(F)F)c1	2
CCCN1CCN(c2cc(NCC)c3c4c(onc24)-c2ccccc2C3=O)CC1	1.06
O=C(/C=C/c1cccc(OC(F)(F)F)c1)NCCCCCN1CCC(c2c[nH]c3ccccc23)CC1	0.96
COc1ccc(NC(=O)Nc2cc(C)nc3ccccc23)cc1Cl	0.69
CN(C)CC(O)COc1ccc(Nc2ncc([N+](=O)[O-])c(Nc3ccccc3O)n2)cc1 (stereo unspecified)	0.76
CC[C@H]1CN2CC[C@H]1C[C@H]2[C@H](O)c1cc(-c2cccc(F)c2)nc2ccc(OC)cc12	0.06
COc1cc(NC(=O)c2sc(-c3ccc(Cl)cc3)cc2NC(=O)c2ccncc2)ccc1OCCN1CCCC1	0.03
O=C(Nc1ccc(-c2ccc(-c3nc4ccc(C(F)(F)F)cc4[nH]3)s2)cc1)c1cnc[nH]1	0.67
Cc1nc(N)nc(N)c1-c1ccc(Cl)cc1	0.77
Cc1cc2ccc(-c3cccc(CN)c3)cc2nc1N	0.76
CCOc1ccccc1C=CC(=O)Nc1ccc2nc(N3CCN(C)CC3)cc(C)c2c1	0.27
CCNc1cc(C)nc(Nc2ccc(NC(=O)c3c(F)cccc3Cl)cc2)n1	1.12
Cc1[nH]c2ccccc2c1C1=CCN(CCN2CCOc3c(Br)cccc3C2=O)CC1	0.8
CN(C)C(C)(C)CN(Cc1ccc(-c2ccc(C(F)(F)F)cc2)cc1)C(=O)Cn1c(CCc2cccc(F)c2F)nc(=O)c2ccccc21	0.83
Cc1ccccc1N1CCN(c2ccc(C(=O)Nc3ccccc3)cn2)CC1	0.59
